Experimental data taken from patent US12209096B2, “Compounds and compositions for inducing chondrogenesis” (NOVARTIS AG, priority 2017, dated 2025).

Experiments:
[1] = test system: NHACs; assay: calcium flux assay; format: cell-based, human; details: Homo sapiens; for Emax: read-out: (A) % Efficacy
Summary of the method: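 Normal human articular chondrocytes plated at 2000 cells/well and loaded 24 h later with Calcium 5 dye in HBSS/HEPES with 5 mM probenecid for 1 h at room temperature. Test compound added at indicated dose; fluorescence (ex 470–495/em 515–575 nm) recorded on FLIPR before and after addition.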

[2] = test system: human chondrogenic progenitor cell (CPCs); assay: Collagen type II assay (chondrogenic differentiation); format: cell-based; details: 432 h, hCPCs, 18 days; for Emax: read-out: (B) % Efficacy; for EC50: read-out: (B) EC50
Protocol: To initiate chondrogenesis in primary CPCs, 8000 cells were plated/well in a Costar 96 well plate in MSCGM. After 24 hours the MSCGM was removed and replaced with DMEM containing 1% FBS. The test compound was then added to each well at the indicated dose. The cultures were grown at 37° C. for 18 days. A media supplement of an additional 50 μl of DMEM containing 1% FBS was given 10 days after chondrogenic induction.
To detect the presence of Collagen type II, hCPCs were fixed with 10% formalin for 20 minutes, permeablized with PBS containing 0.1% triton X-100, 0.2 mg/ml of Collagenase 2 for 10 minutes, blocked with PBS containing 5% BSA for 1 hr at room temperature, followed by incubation with primary antibody (anti-type II collagen antibody) in PBS containing 1% BSA overnight at 4° C. Cells were washed 3 times with PBS and incubated with fluorophore-conjugated secondary antibody and Hoechst dye for 1 hour at room temperature, followed by washing with PBS for 3 times.
The total intensity of staining was imaged by fluoresecent microscopy and/or quantified by high content imagining with the ImageXpress Micro (Molecular Devices, Sunnyvale, CA). Data analyses were performed with the customized multiwavelength cell-scoring application.

[3] = test system: normal human articular chondrocytes (NHACs); assay: alkaline phosphatase assay in NHAC; format: cell-based; details: Homo sapiens, Chondrocyte, 240 h, 10 days; for Emax: read-out: (C) % Efficacy; for IC50: read-out: (C) IC50
Protocol: To initiate differentiation in NHACs, 16,000 cells were plated/well in Costar 96 well plate in CGM media (Lonza). After 24 hours the MSCGM was removed and replaced with DMEM containing 1% FBS. The test compound was then added to each well at the indicated dose. The cultures were grown at 37° C. for 10 days.
To detect the presence of hypertrophic cells, NHACs were fixed with 10% formalin and Hoeschst dye for 20 minutes, rinsed in PBS, then stained with Fast Blue RR Salt with Naphthol AS-MX Phosphate Alkaline Solution.
(§1) The total intensity of staining was imaged by fluoresecent microscopy, using the 651 wavelength, and/or quantified by high content imagining with the ImageXpress Micro (Molecular Devices, Sunnyvale, CA). Data analyses were performed with the customized multiwavelength cell-scoring application.

[4] = test system: C3H10T1/2 cell line; assay: alkaline phosphatase assay in C3H10T1/2; format: cell-based; details: Mus musculus, C3H 10T1/2, 144 h, alkaline phosphatase assay in C3H10T1/2, 6 days; for Emax: read-out: (D) % Efficacy; for IC50: read-out: (D) IC50
Protocol: To initiate differentiation in C3H10T1/2, Clone 8 (ATCC cat #CCL-226), 4,000 cells were plated/well in 384 Perkin Elmer CellCarrier Ultra plate in DMEM/High glucose (HyClone cat #SH30022.01) containing 10% FBS and 1× Antibiotic/Antimycotic (HyClone cat #SV30079.01). After 24 hours the test compound was then added to each well at the indicated dose. The cultures were grown at 37° C. for 6 days.
To detect the presence of hypertrophic cells, C3H10T1/2 were fixed with 4% paraformaldehyde and Hoeschst dye for 20 minutes, rinsed in PBS, then stained with Fast Blue RR Salt with Naphthol AS-MX Phosphate Alkaline Solution.
as §1, with “ALP” for “total intensity of”, “561” for “651”, “Micro Confocal” for “Micro”, “application looking at the number of ALP positive cells per well.” for “application.”

[5] = intrinsic clearance in rat liver microsomes; format: in vitro ADME
[6] = intrinsic clearance in human liver microsomes; format: in vitro ADME
[7] = biological target: CYP3A4 (Homo sapiens, UniProt P08684); assay: CYP3A4 inhibition; format: in vitro ADME; details: read-out: CYP3A4 inh.
CYP3A4, sequence (P08684 whole entry): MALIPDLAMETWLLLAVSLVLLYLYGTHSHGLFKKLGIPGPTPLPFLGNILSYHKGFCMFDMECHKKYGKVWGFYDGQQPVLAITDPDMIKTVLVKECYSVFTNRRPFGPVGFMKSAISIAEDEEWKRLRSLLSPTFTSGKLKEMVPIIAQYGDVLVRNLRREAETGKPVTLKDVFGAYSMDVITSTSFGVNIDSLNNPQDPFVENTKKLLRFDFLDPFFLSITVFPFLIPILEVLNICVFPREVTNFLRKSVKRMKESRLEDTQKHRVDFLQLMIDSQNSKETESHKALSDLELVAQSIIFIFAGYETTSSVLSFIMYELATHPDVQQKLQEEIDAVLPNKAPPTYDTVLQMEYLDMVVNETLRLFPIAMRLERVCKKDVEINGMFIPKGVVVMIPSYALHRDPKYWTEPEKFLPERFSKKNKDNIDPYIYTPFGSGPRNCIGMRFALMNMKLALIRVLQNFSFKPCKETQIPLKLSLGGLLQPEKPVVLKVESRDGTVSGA

EC50 [1] [µM]	IC50 [4] [µM]	microsomal CLint [5] [µL/min/mg]	microsomal CLint [6] [µL/min/mg]	IC50 [7] [µM]	Structure (SMILES)	Emax [1] [%]	Emax [2] [%]	EC50 [2] [µM]	Emax [3] [%]	IC50 [3] [µM]	Emax [4] [%]
29	> 20	–	–	–	Cc1cc([C@@H]2[C@@H]3O[C@@H]([C@@H](O)[C@H]3O)[C@H]2C(=O)Nc2ccc(Cl)c(Cl)c2)ccn1 (single isomer, unassigned) [Example 157]	57	59	2.1	84	32	15
6.1	> 20	–	–	–	Cc1cc([C@H]2[C@H]3O[C@H]([C@@H]4C[C@@H]43)[C@H]2C(=O)Nc2ccc(Cl)c(Cl)c2)ccn1 (single isomer, unassigned) [Example 23a]	99	29	0.78	100	30	28
–	–	466	202	6	O=C(Nc1ccc(Cl)c(Cl)c1)[C@H]1[C@@H](c2ccncc2)[C@@H]2CC[C@H]1O2 [reference compound]	–	–	–	–	–	–
> 50	> 20	–	–	–	O=C(Nc1ccc(Cl)c(Cl)c1)[C@H]1[C@@H](c2ccnc(F)c2)[C@H]2O[C@@H]1C[C@@H]2O (single isomer, unassigned) [Example 52a]	96	80	0.49	71	17	36
26	> 20	–	–	–	Cc1cc([C@H]2[C@H]3O[C@H](C[C@@H]3O)[C@@H]2C(=O)Nc2ccc(Cl)c(Cl)c2)ccn1 (single isomer, unassigned) [Example 77a]	182	120	0.69	114	3.5	45
–	–	7	7	> 25	O=C(Nc1ccc(Cl)c(Cl)c1)[C@H]1[C@@H](c2ccncc2)[C@H]2O[C@@H]1C[C@@H]2O	–	–	–	–	–	–
> 50	> 20	–	–	–	Cc1cc([C@H]2[C@H]3O[C@H](C[C@@H]3O)[C@@H]2C(=O)Nc2cnc(Cl)c(Cl)c2)ccn1 (single isomer, unassigned) [Example 83]	38	150	1.5	106	12	34
–	–	11	7	20	Nc1cc([C@H]2[C@H]3O[C@H](C[C@@H]3O)[C@@H]2C(=O)Nc2ccc(Cl)c(Cl)c2)ccn1 [drawing 199]	–	–	–	–	–	–
> 50	> 20	–	–	–	Cc1cc([C@H]2[C@H]3O[C@H](C[C@@H]3O)[C@H]2C(=O)Nc2ccc(Cl)c(Cl)c2)ccn1 (single isomer, unassigned) [Example 53a]	12	44	13	83	31	0
18	> 20	–	–	–	Cc1cc([C@H]2[C@H]3O[C@H]([C@H](O)[C@@H]3O)[C@@H]2C(=O)Nc2ccc(Cl)c(Cl)c2)ccn1 (single isomer, unassigned) [Example 156]	28	99	0.95	103	15	42
22	1.5	–	–	–	Cc1cc([C@H]2[C@H]3O[C@H](C[C@H]3N3CCOCC3)[C@@H]2C(=O)Nc2ccc(Cl)c(Cl)c2)ccn1 [Example 177, (1R,2R,3S,4R,5R)—N-(3,4-dichlorophenyl)-3-(2-methylpyridin-4-yl)-5-morpholino-7-oxabicyclo[2.2.1]heptane-2-carboxamide]	211	34	1.5	33	> 50	103
> 50	> 20	–	–	–	O=C(Nc1cnc(Cl)c(Cl)c1)[C@@H]1[C@@H](c2ccnc(F)c2)[C@H]2O[C@@H]1C[C@@H]2O (single isomer, unassigned) [Example 90a]	101	65	2.3	98	> 50	48
> 50	> 20	–	–	–	O=C(Nc1ccc(Cl)c(Cl)c1)[C@H]1[C@@H](c2ccncc2)[C@H]2O[C@@H]1C[C@@H]2O (single isomer, unassigned) [Example 47a]	68	82	2.1	88	33	23
0.27	> 20	–	–	–	O=C(Nc1cccc(C(F)(F)F)c1)[C@H]1[C@@H](c2ccncc2)[C@H]2O[C@@H]1C[C@@H]2O (single isomer, unassigned) [Example 11a]	98	91	2.9	65	48	6
22	6.6	–	–	–	O=C(Nc1ccc(Cl)c(Cl)c1)[C@@H]1[C@@H](c2ccnc(F)c2)[C@H]2O[C@@H]1C[C@@H]2O (single isomer, unassigned) [Example 142a]	68	83	1.2	93	33	81
–	–	243	38	5	Nc1cc([C@@H]2[C@@H](C(=O)Nc3ccc(Cl)c(Cl)c3)[C@H]3CC[C@@H]2O3)ccn1 [reference compound]	–	–	–	–	–	–
